According to publication PMC9456400 (International Journal of Molecular Sciences, 2022):

Experiments:
recombinant human CYP3A4 = recombinant human CYP3A4 (Homo sapiens, UniProt P08684); assay: Vivid CYP450 Red screening assay (BOMR substrate, baculosomes)
Method: The Vivid® BOMR substrate is a blocked dye that yields a minimal fluorescence signal until metabolized by CYP3A4 into products that are highly fluorescent in aqueous solutions (Figure 5, left panel).
The stringent validation process ensures the highest quality data possible for the 10-point titration, which was performed in duplicate (n = 3). An additional two control wells for each compound concentration tested are conducted to detect autofluorescent compound interference.

Huh-7 cells [1] = assay: Colorimetric enzymatic quantification of cholesteryl esters and triglycerides; format: cell-based, human; settings: lorlatinib-treated (1 μmol/L) Huh-7 cells, silibinin 100 μmol/L, 48 h
[2] = standard doses of silibinin-containing milk thistle preparations ref 57; cited from earlier work
HepG2 cells = assay: Oil Red O staining of neutral lipids; format: cell-based, human; settings: HepG2, acute exposure 48 h; silibinin 100 μmol/L as co-treatment with lorlatinib
Method: To confirm these findings, we employed an independent in vitro model of fatty liver disease involving non-tumorigenic HepG2 cells, which are routinely employed as an inducible fatty liver cell model to screen for therapeutic drugs to eliminate lipid accumulation.
(§1) For assessment of neutral lipid formation, cells were washed in PBS, fixed with 4% paraformaldehyde for 30 min, washed in distilled water, and then briefly incubated in 60% isopropanol. Following equilibration, cells were stained with a working solution (60%) of Oil Red O for 20 min. An Oil Red O stock solution was prepared by dissolving 0.35% w/v Oil Red O in 100 mL 100% isopropanol. HCS LipidTOX™ Green Neutral Lipid Stain (Invitrogen; Cat. #H34475) was employed as a second staining cocktail for visualization of intracellular neutral lipids. Formaldehyde fixation and preparing/using the labeling solution was carried out as per the manufacturer’s instructions.

Huh-7 cells [3] = assay: UHPLC-ESI-QTOF-MS/MS lipidomics; format: cell-based, human
Description: We then questioned whether lorlatinib used at concentrations efficacious against ALK-rearranged lung cancer cells but non-toxic to ALK-negative cells could promote substantial lipidome changes in Huh-7 cells (Figure 1B; Table 1). Accordingly, […], and the lipidome was characterized in a semi-targeted approach using a UHPLC-ESI-QTOF-MS/MS method, in which we matched mass spectra with commercial standards (SPLAH mix), databases such as METLIN-PCDL and Lipid MAPS (accessed on 1 July 2022), as well as corroboration of tentative lipid species upon obtaining their MS/MS spectrum. Representative chromatograms of lipidomic analyses in Huh-7 cells can be found in Figure S1.
Lipid extraction, preparation of external calibration curves, and quality control approaches were carried out as described. Samples (2 μL) were injected directly into a 1290 Infinity UHPLC system coupled with a dual Agilent jet stream ESI source to a 6550 QTOF-MS instrument (Agilent Technologies, Santa Clara, CA, USA). UHPLC-ESI-QTOF-MS conditions, data analysis and indirect quantification of selected lipid species using MassHunter Qualitative Analysis B.07.00 software (Agilent Technologies), and corroboration of the tentative characterization of compound match entities using the Lipid Maps database (www.lipidmaps.org, accessed on 1 July 2022) and targeted MS/MS acquisition on LC-QTOF-MS instrument, have been previously described in detail.
Differentially expressed lipid species from untargeted lipidomic data were analyzed by generating volcano plots indicating statistical significance versus magnitude of fold-change for each lipid species (cutoff of Benjamini–Hochberg corrected p-value < 0.05 and log2 fold-change > 1 or […]).

Huh-7 cells [4] = assay: Oil Red O and LipidTOX staining of neutral lipids; format: cell-based, human; settings: Huh-7, chronic exposure 7 days; silibinin 10 μmol/L as co-treatment with lorlatinib
Method: We first employed a conventional index of fatty liver disease––the intracellular accumulation of neutral lipids (steatosis)––to confirm the ability of lorlatinib to trigger hypertriglyceridemia and hypercholesteremia.
as §1

Huh-7 cells [5] = assay: Toxicity of the combination in long-term confluent Huh-7 cells; format: cell-based, human; settings: silibinin as high as 100 μmol/L, Huh-7 growing confluent for more than 1 month
Description: Our multi-faceted approach involving computational modeling, neural network-based prediction models to classify CYP inhibition, and in vitro validation using recombinant human CYP3A4, confirms and further extends the notion that exposure to standard doses of silibinin-containing milk thistle preparations leading to relatively low peak systemic concentrations (1–10 μmol/L) are expected to be accompanied by low-risk for an inhibitory interaction of the first-pass clearance of lorlatinib at the hepatic level.

Sequence of recombinant human CYP3A4 (P08684 whole entry): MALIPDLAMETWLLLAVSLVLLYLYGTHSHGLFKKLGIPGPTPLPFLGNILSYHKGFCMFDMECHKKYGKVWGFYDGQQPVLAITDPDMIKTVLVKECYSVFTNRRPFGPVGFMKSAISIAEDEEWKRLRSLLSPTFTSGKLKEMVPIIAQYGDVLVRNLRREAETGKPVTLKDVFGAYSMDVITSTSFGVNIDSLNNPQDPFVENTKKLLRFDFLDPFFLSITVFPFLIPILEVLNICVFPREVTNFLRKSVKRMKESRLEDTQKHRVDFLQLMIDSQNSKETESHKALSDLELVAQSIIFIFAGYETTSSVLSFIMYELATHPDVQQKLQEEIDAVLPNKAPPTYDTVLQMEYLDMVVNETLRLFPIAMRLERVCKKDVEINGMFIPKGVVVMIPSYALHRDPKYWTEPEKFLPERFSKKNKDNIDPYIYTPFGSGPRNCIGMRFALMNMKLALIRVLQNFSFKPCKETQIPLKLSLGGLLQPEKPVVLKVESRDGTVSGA

IC50 (recombinant human CYP3A4) | Structure (SMILES) | Accumulation of cholesterol esters and triglycerides (Huh-7 cells [1]) | Peak systemic concentrations [2] | Accumulation of neutral lipids (lipid droplets) (HepG2 cells) | Change of lipid species, single agent (Huh-7 cells [3]; Huh-7, 48 h, lorlatinib 1 μmol/L, silibinin 100 μmol/L) | Effect of co-treatment on lorlatinib-induced rise of lipid species (Huh-7 cells [3]; Huh-7, silibinin 100 μmol/L with lorlatinib 1 μmol/L, 48 h) | Accumulation of neutral lipids (lipid droplets) (Huh-7 cells [4]) | Toxic effects of the combination with lorlatinib (Huh-7 cells [5])
> 300 µM | CC(C)c1nc(N(C)S(C)(=O)=O)nc(-c2ccc(F)cc2)c1/C=C/[C@@H](O)C[C@@H](O)CC(=O)O [rosuvastatin] | – | – | – | – | – | – | –
– | COc1cc(C2Oc3cc([C@H]4Oc5cc(O)cc(O)c5C(=O)[C@@H]4O)ccc3OC2CO)ccc1O (some centres unmarked) [silibinin] | inhibit the accumulation of cholesterol esters and triglycerides | 1 to 10 µmol/L | markedly fewer and smaller neutral lipid depots | significantly lowered the baseline abundance of many ChoE species | completely blunted the significant lorlatinib-induced rise in numerous ChoE and TG/DG species | notably decreased the quantity and size of the lipid droplets | failed to observed significant toxic effects
